Source: PubChem BioAssay AID258 (DTP/NCI, 2004)
Where “and” joins values, the source holds several entries; their conditions need not be identical. Equal entries are not always repeated. Inconclusive results and toxic doses are left out. Rule for the calls: active = survival T/C of 150% or more; inactive = T/C below 125% in these data.

Test system: CD2F1 mice, L1210 leukemia sc, survival T/C
Experiment: NCI In Vivo Anticancer Drug Screen. Data for tumor model L1210 Leukemia (subcutaneous) in CD2F1 (CDF1) mice
Settings: endpoint: median survival time, higher = longer survival
Method in brief: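 Transplantable tumor-bearing mice were treated with compound; survival or tumor size measured and expressed as treated-group value (T) divided by vehicle-treated control value (C).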

[1] = dose: 3.75 mg/kg/injection, schedule: Q01DX Z (sc), vehicle: carboxymethylcellulose (CMC)
[2] = dose: 7.5 mg/kg/injection, schedule: Q01DX Z (sc), vehicle: carboxymethylcellulose (CMC)
[3] = dose: 15.0 mg/kg/injection, schedule: Q01DX Z (sc), vehicle: carboxymethylcellulose (CMC)
[4] = dose: 30.0 mg/kg/injection, schedule: Q01DX Z (sc), vehicle: carboxymethylcellulose (CMC)

Measured: T/C

CCOC(=O)c1c[nH]c2oc(/C=N/N3CC(CN4CCOCC4)OC3=O)cc2c1=O (stereo unspecified)
inactive: dose: 25.0 mg/kg/injection, schedule: Q01DX009 (ip), vehicle: acid diluted with saline 101 % of control | dose: 50.0 mg/kg/injection, schedule: Q01DX009 (ip), vehicle: acid diluted with saline 109 % of control | dose: 50.0 mg/kg/injection, schedule: Q01DX009 (ip), vehicle: other 102 % of control | dose: 79.0 mg/kg/injection, schedule: Q01DX005 (ip), vehicle: other 108 % of control and 111 % of control | dose: 100.0 mg/kg/injection, schedule: Q01DX009 (ip), vehicle: acid diluted with saline 110 % of control | dose: 118.7 mg/kg/injection, schedule: Q01DX005 (ip), vehicle: other 109 % of control and 119 % of control | dose: 178.0 mg/kg/injection, schedule: Q01DX005 (ip), vehicle: other 113 % of control
active: dose: 200.0 mg/kg/injection, schedule: Q01DX009 (ip), vehicle: acid diluted with saline 155 % of control | dose: 400.0 mg/kg/injection, schedule: Q01DX005 (ip), vehicle: other 198 % of control | dose: 400.0 mg/kg/injection, schedule: Q01DX009 (ip), vehicle: acid diluted with saline 156 % of control

CN(Cc1cnc2nc(N)nc(N)c2n1)c1c(Cl)cc(C(=O)NC(CCC(=O)O)C(=O)O)cc1Cl (stereo unspecified)
inactive: dose: 75.0 mg/kg/injection, schedule: Q03DX Z (oral), vehicle: other 100 % of control | dose: 75.0 mg/kg/injection, schedule: Q#A X Z (oral), vehicle: other 122 % of control | dose: 108.0 mg/kg/injection, schedule: Q## X Z (oral), vehicle: other 110 % of control | dose: 108.0 mg/kg/injection, schedule: Q## X Z (sc), vehicle: other 115 % of control | dose: 125.0 mg/kg/injection, schedule: Q03DX Z (oral), vehicle: other 100 % of control | dose: 180.0 mg/kg/injection, schedule: Q## X Z (oral), vehicle: other 115 % of control | dose: 180.0 mg/kg/injection, schedule: Q## X Z (sc), vehicle: other 115 % of control | dose: 208.0 mg/kg/injection, schedule: Q03DX Z (oral), vehicle: other 113 % of control | dose: 300.0 mg/kg/injection, schedule: Q## X Z (oral), vehicle: other 110 % of control | dose: 300.0 mg/kg/injection, schedule: Q## X Z (sc), vehicle: other 120 % of control | dose: 347.0 mg/kg/injection, schedule: Q03DX Z (oral), vehicle: other 109 % of control | dose: 500.0 mg/kg/injection, schedule: Q## X Z (oral), vehicle: other 115 % of control | dose: 961.0 mg/kg/injection, schedule: Q03DX Z (oral), vehicle: other 122 % of control
active: dose: 5.83 mg/kg/injection, schedule: Q#A X Z (oral), vehicle: other 163 % of control | dose: 8.1 mg/kg/injection, schedule: Q#A X Z (oral), vehicle: other 220 % of control | dose: 8.1 mg/kg/injection, schedule: Q#A X Z (sc), vehicle: other 655 % of control | dose: 9.72 mg/kg/injection, schedule: Q#A X Z (oral), vehicle: other 204 % of control | dose: 9.72 mg/kg/injection, schedule: Q#A X Z (sc), vehicle: other 345 % of control | dose: 13.5 mg/kg/injection, schedule: Q#A X Z (oral), vehicle: other 230 % of control | dose: 13.5 mg/kg/injection, schedule: Q#A X Z (sc), vehicle: other 730 % of control | dose: 16.2 mg/kg/injection, schedule: Q#A X Z (sc), vehicle: other 322 % of control | dose: 22.5 mg/kg/injection, schedule: Q#A X Z (oral), vehicle: other 190 % of control | dose: 22.5 mg/kg/injection, schedule: Q#A X Z (sc), vehicle: other 690 % of control | dose: 25.0 mg/kg/injection, schedule: Q01DX Z (sc), vehicle: other 500 % of control | dose: 27.0 mg/kg/injection, schedule: Q01DX Z (oral), vehicle: other 186 % of control and 215 % of control | dose: 27.0 mg/kg/injection, schedule: Q01DX Z (sc), vehicle: other 331 % of control and 565 % of control and 900 % of control | dose: 27.0 mg/kg/injection, schedule: Q#A X Z (sc), vehicle: other 786 % of control | dose: 28.0 mg/kg/injection, schedule: Q01DX Z (oral), vehicle: other 194 % of control | dose: 37.5 mg/kg/injection, schedule: Q#A X Z (oral), vehicle: other 175 % of control | dose: 37.5 mg/kg/injection, schedule: Q#A X Z (sc), vehicle: other 565 % of control | dose: 45.0 mg/kg/injection, schedule: Q01DX Z (oral), vehicle: other 181 % of control and 210 % of control | dose: 45.0 mg/kg/injection, schedule: Q01DX Z (sc), vehicle: other 363 % of control and 825 % of control | dose: 47.0 mg/kg/injection, schedule: Q01DX Z (oral), vehicle: other 222 % of control | dose: 47.0 mg/kg/injection, schedule: Q01DX Z (sc), vehicle: other 816 % of control | dose: 50.0 mg/kg/injection, schedule: Q01DX Z (sc), vehicle: other 500 % of control | dose: 62.5 mg/kg/injection, schedule: Q#A X Z (sc), vehicle: other 175 % of control | dose: 75.0 mg/kg/injection, schedule: Q01DX Z (oral), vehicle: other 159 % of control and 190 % of control | dose: 75.0 mg/kg/injection, schedule: Q01DX Z (sc), vehicle: other 231 % of control and 554 % of control and 800 % of control | dose: 78.0 mg/kg/injection, schedule: Q01DX Z (oral), vehicle: other 188 % of control | dose: 78.0 mg/kg/injection, schedule: Q01DX Z (sc), vehicle: other 272 % of control | dose: 125.0 mg/kg/injection, schedule: Q01DX Z (oral), vehicle: other 172 % of control and 200 % of control | dose: 125.0 mg/kg/injection, schedule: Q01DX Z (sc), vehicle: other 205 % of control | dose: 125.0 mg/kg/injection, schedule: Q03DX Z (sc), vehicle: other 513 % of control | dose: 130.0 mg/kg/injection, schedule: Q01DX Z (oral), vehicle: other 200 % of control | dose: 130.0 mg/kg/injection, schedule: Q01DX Z (sc), vehicle: other 194 % of control | dose: 208.0 mg/kg/injection, schedule: Q03DX Z (sc), vehicle: other 272 % of control | dose: 216.0 mg/kg/injection, schedule: Q01DX Z (oral), vehicle: other 172 % of control | dose: 216.0 mg/kg/injection, schedule: Q01DX Z (sc), vehicle: other 155 % of control | dose: 250.0 mg/kg/injection, schedule: Q## X Z (sc), vehicle: other 500 % of control | dose: 347.0 mg/kg/injection, schedule: Q03DX Z (sc), vehicle: other 195 % of control | dose: 360.0 mg/kg/injection, schedule: Q01DX Z (oral), vehicle: other 166 % of control | dose: 500.0 mg/kg/injection, schedule: Q## X Z (sc), vehicle: other 370 % of control and 500 % of control | dose: 577.0 mg/kg/injection, schedule: Q03DX Z (oral), vehicle: other 150 % of control | dose: 577.0 mg/kg/injection, schedule: Q03DX Z (sc), vehicle: other 209 % of control | dose: 833.0 mg/kg/injection, schedule: Q## X Z (oral), vehicle: other 155 % of control | dose: 833.0 mg/kg/injection, schedule: Q## X Z (sc), vehicle: other 360 % of control | dose: 961.0 mg/kg/injection, schedule: Q03DX Z (sc), vehicle: other 172 % of control

O=NN(CCCl)C(=O)NC1CC2CCC1C2 (stereo unspecified)
active: [4] 288 % of control | dose: 60.0 mg/kg/injection, schedule: Q01DX Z (sc), vehicle: carboxymethylcellulose (CMC) 200 % of control
inactive: [1] 94 % of control | [2] 94 % of control | [3] 117 % of control

Nc1nc(=S)c2ncn(C3OC(CO)C(O)C3O)c2[nH]1 (stereo unspecified)
active: dose: 6.0 mg/kg/injection, schedule: Q01DX Z (sc), vehicle: other 177 % of control | dose: 10.1 mg/kg/injection, schedule: Q01DX Z (sc), vehicle: other 183 % of control | dose: 16.9 mg/kg/injection, schedule: Q01DX Z (sc), vehicle: other 155 % of control | dose: 28.1 mg/kg/injection, schedule: Q01DX Z (sc), vehicle: other 161 % of control | dose: 46.8 mg/kg/injection, schedule: Q01DX Z (sc), vehicle: other 155 % of control
inactive: dose: 65.0 mg/kg/injection, schedule: Q01DX Z (sc), vehicle: other 123 % of control | dose: 108.0 mg/kg/injection, schedule: Q01DX Z (sc), vehicle: other 123 % of control | dose: 180.0 mg/kg/injection, schedule: Q01DX Z (sc), vehicle: other 114 % of control | dose: 300.0 mg/kg/injection, schedule: Q01DX Z (sc), vehicle: other 104 % of control

O=NN(CCF)C(=O)NC1CCCCC1
inactive: dose: 1.85 mg/kg/injection, schedule: Q01DX Z (sc), vehicle: carboxymethylcellulose (CMC) 100 % of control | [1] 111 % of control
active: [2] 376 % of control | [3] 394 % of control | [4] 211 % of control
